In ChEMBL document CHEMBL1201862, “PubChem BioAssay data set” (2004):
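Dose response: 5 concentrations. Exposure: 48 h. Format: 96-well plates. Endpoint: linear interpolation; highest concentration if not reached. Abbreviation: GI50, concentration required for 50% inhibition of growth.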 The source made the active and inactive calls. No stated cut-off is given here; in the data, active = GI50 up to about 1.1 µM and inactive = higher.

Legend:
Assay in all cases: NCI anticancer screen, dose series, 48 h
Malme-3M = tested on: Malme-3M
BT-549 = tested on: BT-549
ACHN = tested on: ACHN
A498 = tested on: A498
SW-620 = tested on: SW-620
MDA-N = tested on: MDA-N
HL-60 = tested on: HL-60
M14 = tested on: M14
IGROV-1 = tested on: IGROV-1
UO-31 = tested on: UO-31
786-0 = tested on: 786-0
COLO 205 = tested on: COLO 205
SF-268 = tested on: SF-268
SNB-75 = tested on: SNB-75
T47D = tested on: T47D
NCI-H226 = tested on: NCI-H226
HOP-92 = tested on: HOP-92
LOX IMVI = tested on: LOX IMVI
MOLT-4 = tested on: MOLT-4
NCI-H522 = tested on: NCI-H522

For `N#CC(c1ccccc1)N(CCc1ccccc1)C(=O)c1ccc(C(=O)N(CCc2ccccc2)C(C#N)c2ccccc2)cc1` (stereo unspecified), the GI50 (Malme-3M) was 19.3 µM (inactive), the GI50 (BT-549) was 14.5 µM (inactive) and the GI50 (ACHN) was 24 µM (inactive). The GI50 (A498) was 30.5 µM (inactive), the GI50 (SW-620) was 22.9 µM (inactive) and the GI50 (MDA-N) was 24 µM (inactive). For the same compound, the GI50 (HL-60) was 22.9 µM (inactive), the GI50 (M14) was 24.4 µM (inactive) and the GI50 (IGROV-1) was 23.9 µM (inactive). The GI50 (UO-31) was 19.4 µM (inactive), the GI50 (786-0) was 22.6 µM (inactive) and the GI50 (COLO 205) was 21.9 µM (inactive). For the same compound, the GI50 (SF-268) was 22 µM (inactive), the GI50 (SNB-75) was 19.3 µM (inactive) and the GI50 (T47D) was 16.9 µM (inactive). For the same compound, the GI50 (NCI-H226) was 17 µM (inactive), the GI50 (HOP-92) was 12.9 µM (inactive) and the GI50 (LOX IMVI) was 17.9 µM (inactive). The GI50 (MOLT-4) was > 10 µM (inactive).
With `OC(c1ccccc1)(c1cccnc1)C(O)(c1ccccc1)c1cccnc1` (stereo unspecified) the GI50 (Malme-3M) was > 100 µM (inactive), the GI50 (BT-549) was > 100 µM (inactive) and the GI50 (ACHN) was > 100 µM (inactive). For the same compound, the GI50 (SW-620) was > 100 µM (inactive), the GI50 (MDA-N) was > 100 µM (inactive) and the GI50 (HL-60) was > 100 µM (inactive). The GI50 (M14) was > 100 µM (inactive), the GI50 (IGROV-1) was > 100 µM (inactive) and the GI50 (UO-31) was > 100 µM (inactive). For the same compound, the GI50 (786-0) was > 100 µM (inactive), the GI50 (COLO 205) was > 100 µM (inactive) and the GI50 (SF-268) was > 100 µM (inactive). For the same compound, the GI50 (SNB-75) was > 100 µM (inactive), the GI50 (T47D) was > 100 µM (inactive) and the GI50 (NCI-H522) was 6.97 µM (inactive). For the same compound, the GI50 (NCI-H226) was 69.7 µM (inactive) and the GI50 (HOP-92) was > 100 µM (inactive).
In the case of `CC(C)(CN1CCCCC1)C(=O)CC(SCCS(=O)(=O)O)c1ccccc1` (stereo unspecified), the GI50 (Malme-3M) is reported as 12.7 µM (inactive), the GI50 (BT-549) is reported as 15.3 µM (inactive) and the GI50 (ACHN) is reported as 16.9 µM (inactive). For the same compound, the GI50 (A498) was 14.9 µM (inactive), the GI50 (SW-620) was 11.1 µM (inactive) and the GI50 (MDA-N) was 16.3 µM (inactive). For the same compound, the GI50 (M14) was 9.38 µM (inactive), the GI50 (IGROV-1) was 26.4 µM (inactive) and the GI50 (UO-31) was 12.1 µM (inactive). For the same compound, the GI50 (786-0) was 11 µM (inactive), the GI50 (COLO 205) was 13.6 µM (inactive) and the GI50 (SF-268) was 10 µM (inactive). For the same compound, the GI50 (SNB-75) was 20.4 µM (inactive), the GI50 (NCI-H522) was 3.11 µM (inactive) and the GI50 (NCI-H226) was 27.7 µM (inactive). For the same compound, the GI50 (HOP-92) was 5.64 µM (inactive) and the GI50 (MOLT-4) was 11.3 µM (inactive).
In the case of `CN(C)/C=N\c1nncc2[nH]nnc12`, the GI50 (BT-549) is reported as > 100 µM (inactive), the GI50 (ACHN) is reported as > 100 µM (inactive) and the GI50 (A498) is reported as > 100 µM (inactive). For the same compound, the GI50 (SW-620) was > 100 µM (inactive), the GI50 (MDA-N) was > 100 µM (inactive) and the GI50 (HL-60) was 5.97 µM (inactive). For the same compound, the GI50 (M14) was > 100 µM (inactive), the GI50 (IGROV-1) was > 100 µM (inactive) and the GI50 (UO-31) was > 100 µM (inactive). For the same compound, the GI50 (786-0) was > 100 µM (inactive), the GI50 (COLO 205) was > 100 µM (inactive) and the GI50 (SF-268) was > 100 µM (inactive). For the same compound, the GI50 (SNB-75) was > 100 µM (inactive), the GI50 (T47D) was > 100 µM (inactive) and the GI50 (NCI-H226) was > 100 µM (inactive). For the same compound, the GI50 (MOLT-4) was 54.3 µM (inactive).
For `O=C(Nc1cccc(C(F)(F)F)c1)C(=O)C(C(=O)c1ccc2ccccc2c1)C1OC(=O)c2ccccc21` (stereo unspecified), the GI50 (Malme-3M) was 6.81 µM (inactive), the GI50 (BT-549) was 14.3 µM (inactive) and the GI50 (ACHN) was 12.6 µM (inactive). The GI50 (A498) was 9.93 µM (inactive), the GI50 (SW-620) was 6.25 µM (inactive) and the GI50 (HL-60) was 7.69 µM (inactive). The GI50 (M14) was 13 µM (inactive), the GI50 (IGROV-1) was 18.2 µM (inactive) and the GI50 (UO-31) was 12.4 µM (inactive). The GI50 (786-0) was 4.21 µM (inactive), the GI50 (COLO 205) was 10.9 µM (inactive) and the GI50 (SF-268) was 5.05 µM (inactive). For the same compound, the GI50 (SNB-75) was 12 µM (inactive), the GI50 (T47D) was 8.99 µM (inactive) and the GI50 (NCI-H522) was 8.26 µM (inactive). The GI50 (NCI-H226) was 2.89 µM (inactive), the GI50 (HOP-92) was 22.8 µM (inactive) and the GI50 (LOX IMVI) was 4.23 µM (inactive). The GI50 (MOLT-4) was 1.82 µM (inactive).
With `CC(=O)Nc1nc2c(=O)c3ccccc3sc2s1` the GI50 (BT-549) was > 100 µM (inactive), the GI50 (ACHN) was > 100 µM (inactive) and the GI50 (A498) was > 100 µM (inactive). For the same compound, the GI50 (MDA-N) was > 100 µM (inactive), the GI50 (HL-60) was > 100 µM (inactive) and the GI50 (M14) was > 100 µM (inactive). The GI50 (IGROV-1) was > 100 µM (inactive), the GI50 (UO-31) was > 100 µM (inactive) and the GI50 (786-0) was > 100 µM (inactive). For the same compound, the GI50 (COLO 205) was > 100 µM (inactive), the GI50 (SF-268) was > 100 µM (inactive) and the GI50 (SNB-75) was > 100 µM (inactive). The GI50 (T47D) was > 100 µM (inactive), the GI50 (NCI-H226) was > 100 µM (inactive) and the GI50 (MOLT-4) was > 100 µM (inactive).
`C#CCn1c(=O)ccn(/C(=C\C(=O)OCC)C(=O)OCC)c1=O` was tested, and the GI50 (Malme-3M) was 1.89 µM (inactive), the GI50 (BT-549) was 12.4 µM (inactive) and the GI50 (ACHN) was 1.64 µM (inactive). For the same compound, the GI50 (A498) was 17.1 µM (inactive), the GI50 (SW-620) was 1.68 µM (inactive) and the GI50 (MDA-N) was 15.8 µM (inactive). The GI50 (HL-60) was 2.93 µM (inactive), the GI50 (M14) was 4.32 µM (inactive) and the GI50 (IGROV-1) was 9.08 µM (inactive). For the same compound, the GI50 (UO-31) was 13.5 µM (inactive), the GI50 (786-0) was 2.3 µM (inactive) and the GI50 (COLO 205) was 1.11 µM (active). The GI50 (SF-268) was 19.9 µM (inactive), the GI50 (SNB-75) was 20 µM (inactive) and the GI50 (T47D) was 3.52 µM (inactive). The GI50 (NCI-H226) was 19.9 µM (inactive), the GI50 (HOP-92) was 2.16 µM (inactive) and the GI50 (LOX IMVI) was 12.2 µM (inactive). For the same compound, the GI50 (MOLT-4) was 2.56 µM (inactive).
For `CCN(CC)CCNc1ccc2ncn3c4cc(OC)c(OC)c(O)c4c(=O)c1c23`, the GI50 (Malme-3M) was 18 µM (inactive), the GI50 (BT-549) was 16.3 µM (inactive) and the GI50 (ACHN) was 3.76 µM (inactive). The GI50 (A498) was 15.5 µM (inactive), the GI50 (SW-620) was 1.4 µM (inactive) and the GI50 (HL-60) was 11 µM (inactive). For the same compound, the GI50 (M14) was 14.2 µM (inactive), the GI50 (IGROV-1) was 12.5 µM (inactive) and the GI50 (UO-31) was 12.3 µM (inactive). The GI50 (786-0) was 4.01 µM (inactive), the GI50 (COLO 205) was 1.33 µM (inactive) and the GI50 (SF-268) was 3.49 µM (inactive). For the same compound, the GI50 (SNB-75) was 2.78 µM (inactive), the GI50 (T47D) was 21.8 µM (inactive) and the GI50 (NCI-H522) was 12.6 µM (inactive). The GI50 (NCI-H226) was 12.3 µM (inactive), the GI50 (HOP-92) was 1.61 µM (inactive) and the GI50 (LOX IMVI) was 1.24 µM (inactive). The GI50 (MOLT-4) was 0.524 µM (active).
